Measured values: US8999383B2, “Compositions of GnRH related compounds and processes of preparation” (Merrion Research III Limited, priority 2008, dated 2015)
Non-standard residues stand in square brackets, D forms with d. Residues, ends and D or L forms follow the SMILES beside them. dPhe(4-NH2) = Nc1ccc(C[C@@H](N)C(=O)O)cc1; dPhe(4-Cl) = N[C@H](Cc1ccc(Cl)cc1)C(=O)O; Phe(4-NH2) = Nc1ccc(C[C@H](N)C(=O)O)cc1; d2Nal = N[C@H](Cc1ccc2ccccc2c1)C(=O)O; Lys(iPr) = CC(C)NCCCC[C@H](N)C(=O)O; d3Pal = N[C@H](Cc1cccnc1)C(=O)O

Experiment: Gelation of acyline in pH 6.8 buffer with sodium caprate and Tween 80 (filtration, reverse phase HPLC)
Assay type: physicochemical
Protocol: Different concentrations of acyline composition are prepared by adding acyline to pH 6.8 buffer solution either at room temperature or 37° C. All acyline solutions contain 0.6 mg/mL sodium caprate (sodium caprate is referred as C10 in the figures). All samples are centrifuged and filtered prior to analysis. Samples are analyzed by reverse phase HPLC with UV detection. 10 mg acyline is transferred into […] volumetric flask. A pH 6.8 buffer solution is preheated to 37° C. Then, 100 mL pre-heated buffer solution and 0.6 mg/mL sodium caprate is added to the flask to prepare a 0.1 mg/mL acyline sample. In a similar manner, Tween 80 is added to prepare a 0.1 mg/mL acyline solution with 1% Tween 80. Samples are shaken in a temperature controlled water bath at 37° C. 5 mL samples are taken at 1, 5, 10, 15, 20, 30 and 120 minutes after mixing acyline with the buffer solution. Samples are filtered immediately through 0.45 μm filters and the first 3 mL is discarded. Filtered samples are analyzed, undiluted, by reverse phase HPLC with UV detection. All samples are prepared in duplicate and the concentration was obtained for the analysis from the mean of the duplicates. The result of comparison of 1% and 0% Tween 80 at 0.1 mg/mL acyline sample is graphically recorded in FIG. 5. […] A similar experimental procedure as Example 4 is used to prepare acyline sample for example 5. The result of comparison of 5 mg/mL, 1 mg/mL, 0.1 mg/mL and 1% Tween in phosphate buffer containing 0.6 mg/mL of sodium caprate and 0.1 mg/mL acyline is graphically recorded in FIG. 6. […] A similar experimental procedure as Example 4 is used to prepare acyline sample for example 6. The result of comparison of 1% and 1 mg/mL Tween 80 in 0.1 and 0.01 mg/mL acyline sample is graphically recorded in FIG. 7. […] A similar experimental procedure as Example 4 is used to prepare acyline sample for example 7. The result of comparison of 0.01 mg/mL acyline samples having 0.1%, 0.5% and 1% Tween 80 is graphically recorded in FIG. 8.

gelation of acyline (0.01 mg/mL acyline sample, 1% Tween 80 (versus 0.1% and 0.5%)): significantly reduces the gelation
gelation of acyline (0.1 mg/mL acyline, pH 6.8 buffer, 37° C., 0.6 mg/mL sodium caprate alone (below CMC), 0% Tween 80): insufficient to reduce the gelation
gelation of acyline (0.1 mg/mL and 0.01 mg/mL acyline sample, 1% Tween 80): reduces gelation
Compound: CC(=O)Nc1ccc(C[C@H](NC(=O)[C@H](CO)NC(=O)[C@@H](Cc2cccnc2)NC(=O)[C@@H](Cc2ccc(Cl)cc2)NC(=O)[C@@H](Cc2ccc3ccccc3c2)NC(C)=O)C(=O)N[C@H](Cc2ccc(NC(C)=O)cc2)C(=O)N[C@@H](CC(C)C)C(=O)N[C@@H](CCCCNC(C)C)C(=O)N2CCC[C@H]2C(=O)N[C@H](C)C(N)=O)cc1 [acyline, Ac-D2Nal-D4Cpa-D3Pal-Ser4Aph(Ac)-D4Aph(Ac)-Leu-ILys-Pro-DAla-NH2] (Ac-[d2Nal][dPhe(4-Cl)][d3Pal]S[Phe(4-NH2)](Ac)[dPhe(4-NH2)](Ac)L[Lys(iPr)]P[dA]-NH2)
